In general, EC50 refers to the concentration at which the effect is half-maximal.

The record followed here is patent publication US12653815B2, “Luminally-acting N-(piperidin-4-yl)benzamide derivatives” (Takeda Pharmaceutical Company Limited, priority 2020, dated 2026).

The target in the test is T1, human 5-HT4(b) receptor (Homo sapiens, UniProt Q13639).
T1 construct: overexpressing the full-length human 5-HT4(b) receptor with an N-terminal FLAG tag; FLAG (N); host or cells: CHO-K1
T1 sequence (Q13639 whole entry): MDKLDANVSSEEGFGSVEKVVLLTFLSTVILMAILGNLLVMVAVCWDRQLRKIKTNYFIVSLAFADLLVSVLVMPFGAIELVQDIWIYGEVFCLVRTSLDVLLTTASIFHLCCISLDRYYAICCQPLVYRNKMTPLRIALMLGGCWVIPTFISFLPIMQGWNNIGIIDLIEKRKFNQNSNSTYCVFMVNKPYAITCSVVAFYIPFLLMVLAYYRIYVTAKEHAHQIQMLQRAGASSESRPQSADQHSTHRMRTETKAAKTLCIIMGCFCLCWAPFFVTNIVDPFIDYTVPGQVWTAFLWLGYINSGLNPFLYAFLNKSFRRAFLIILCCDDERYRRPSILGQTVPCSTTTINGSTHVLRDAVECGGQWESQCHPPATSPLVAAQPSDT
The test can be described thus: 5-HT4(b) agonist assay (cAMP accumulation). Format: cell-based. The note with it: CHO-K1 cells overexpressing full-length human 5-HT4(b) receptor; cAMP accumulation after 30 minutes at room temperature; 1 μM 5-HT as 100% activity. The method, then:
One may determine the activity of the compounds of Formula 1 using a variety of methods, including in vitro and in vivo methods. The ability of the example compounds to activate the 5-HT4(b) receptor may be determined using the following assay.
Chinese hamster ovary (CHO-K1) cells overexpressing the full-length human 5-HT4(b) receptor with an N-terminal FLAG tag (Multispan Inc, Hayward, CA) are cultured per the manufacturer's protocol in 1:1 DMEM/F12 (Thermo Fisher, Waltham, MA) with 10% fetal bovine serum (GE Healthcare, Pittsburgh, PA) and 10 μg/mL puromycin (Thermo Fisher, Waltham, MA), and stored in frozen aliquots to be used as assay ready cells. On the day of the assay, cells are removed from frozen storage, washed two times in 1× Kreb's Ringer Buffer (Zenbio, Research Triangle Park, NC), and re-suspended to a concentration of 4×10^6 cells/mL in 1× Kreb's Ringer Buffer. Test compound (50 nL) in 100% DMSO is acoustically dispensed in low volume, white, 384-well polypropylene plates (Corning, Tewksbury, MA), followed by the addition of 4×10^4 cells per well in a total volume of 10 μL. Cells are incubated with test compound for 30 minutes at room temperature in the dark, and cAMP accumulation is measured using the Cisbio HiRange cAMP assay kit (Bedford, MA) per the manufacturer's protocol. Anti-cAMP antibody and d2-cAMP tracer reagents diluted in lysis/detection buffer are incubated in the dark for 1 hour, and results are measured on a Pherastar plate reader (BMG Labtech, Ortenberg, Germany). Data are normalized using 1 μM 5-HT (Sigma Aldrich, St. Louis, MO) as 100% activity, and DMSO alone as 0% activity.
The ability of the example compounds to activate the 5-HT4(b) receptor was evaluated using the assay described in the Biological Activity section. Table 1, below, lists EC50 from the 5-HT4(b) agonist assay for each of the example compounds, where smaller EC50 values represent higher potency.
For orientation: Changes in cAMP serve as a functional read-out for many G protein-coupled receptors.
`COc1cc(N)c(Cl)cc1C(=O)N[C@@H]1CCN(CC(C)CCCC(=O)NCCCCCCCC(=O)NC[C@H](O)[C@@H](O)[C@H](O)[C@H](O)CO)C[C@@H]1OC` (stereo partly drawn) [Example 19, 4-amino-5-chloro-2-methoxy-N-((3S,4R)-3-methoxy-1-(2-methyloxo-6-((8-oxo-8-(((2S,3R,4R,5R)-2,3,4,5,6-pentahydroxyhexyl)amino)octyl)amino)hexyl)piperidin-4-yl)benzamide] showed an EC50 of 77 nM.

As for `COc1cc(N)c(Cl)cc1C(=O)N[C@@H]1CCN(CCCCCC(=O)NCCCCCCCC(=O)NCCP(=O)(O)O)C[C@@H]1OC` [Example 25, (2-(8-(6-((3S,4R)-4-(4-amino-5-chloro-2-methoxybenzamido)-3-methoxypiperidin-1-yl)hexanamido)octanamido)ethyl)phosphonic acid], a half-maximal response (EC50) required 115 nM. Turning to `COc1cc(N)c(Cl)cc1C(=O)N[C@@H]1CCN(CCCCCC(=O)NCCCC(=O)NC[C@H](O)[C@@H](O)[C@H](O)[C@H](O)CO)C[C@@H]1OC` [Example 4, 4-amino-5-chloro-2-methoxy-N-((3S,4R)-3-methoxy-1-(6-oxo-6-((4-oxo-4-(((2S,3R,4R,5R)-2,3,4,5,6-pentahydroxyhexyl)amino)butyl)amino)hexyl)piperidin-4-yl)benzamide], the response was half-maximal at 28.6 nM (EC50). The result for `Nc1c(Cl)cc(C(=O)NC2CCN(CCCCCC(=O)NCCCCCC(=O)NC[C@H](O)[C@@H](O)[C@H](O)[C@H](O)CO)CC2)c2c1CCO2` [Example 33, 4-amino-5-chloro-N-(1-(6-oxo-6-((6-oxo-6-(((2S,3R,4R,5R)-2,3,4,5,6-pentahydroxyhexyl)amino)hexyl)amino)hexyl)piperidin-4-yl)-2,3-dihydrobenzofuran-7-carboxamide] reads 12.6 nM. For `Nc1c(Cl)cc(C(=O)NC2CCN(CCCCCC(=O)N[C@@H]3CCCN(CCCCCCCC(=O)NC[C@H](O)[C@@H](O)[C@H](O)[C@H](O)CO)C3)CC2)c2c1CCO2` [Example 28, 4-amino-5-chloro-N-(1-(6-oxo-6-(((R)-1-(8-oxo-8-(((2S,3R,4R,5R)-2,3,4,5,6-pentahydroxyhexyl)amino)octyl)piperidin-3-yl)amino)hexyl)piperidin-4-yl)-2,3-dihydrobenzofuran-7-carboxamide], the EC50 worked out at 3.8 nM. Turning to `COc1cc(N)c(Cl)cc1C(=O)N[C@@H]1CCN(C(C)CCCCC(=O)NCCCCCCCC(=O)NC[C@H](O)[C@@H](O)[C@H](O)[C@H](O)CO)C[C@@H]1OC` (stereo partly drawn) [Example 18, 4-amino-5-chloro-2-methoxy-N-((3S,4R)-3-methoxy-1-(7-oxo-7-((8-oxo-8-(((2S,3R,4R,5R)-2,3,4,5,6-pentahydroxyhexyl)amino)octyl)amino)heptan-2-yl)piperidin-4-yl)benzamide], the EC50 stood at 150 nM. `COc1cc(N)c(Cl)cc1C(=O)N[C@@H]1CCN(CCCCCC(=O)NCCOCCOCCC(=O)NC[C@H](O)[C@@H](O)[C@H](O)[C@H](O)CO)C[C@@H]1OC` [Example 7, 4-amino-5-chloro-2-methoxy-N-((3S,4R)-3-methoxy-1-((19S,20R,21R,22R)-19,20,21,22,23-pentahydroxy-6,16-dioxo-10,13-dioxa-7,17-diazatricosyl)piperidin-4-yl)benzamide] returned an EC50 of 23.4 nM.

In turn, `COc1cc(N)c(Cl)cc1C(=O)N[C@@H]1CCN(CCCCCC(=O)NCCOCCOCCOCCC(=O)NC[C@H](O)[C@@H](O)[C@H](O)[C@H](O)CO)C[C@@H]1OC` [Example 6, 4-amino-5-chloro-2-methoxy-N-((3S,4R)-3-methoxy-1-((22S,23R,24R,25R)-22,23,24,25,26-pentahydroxy-6,19-dioxo-10,13,16-trioxa-7,20-diazahexacosyl)piperidin-4-yl)benzamide] showed an EC50 of 22.2 nM. Next, `COc1cc(N)c(Cl)cc1C(=O)N[C@@H]1CCN(CCCCCC(=O)N[C@@H]2CCCN(CCCCCC(=O)NC[C@H](O)[C@@H](O)[C@H](O)[C@H](O)CO)C2)C[C@@H]1OC` [Example 13, 4-amino-5-chloro-2-methoxy-N-((3S,4R)-3-methoxy-1-(6-oxo-6-(((R)-1-(6-oxo-6-(((2S,3R,4R,5R)-2,3,4,5,6-pentahydroxyhexyl)amino)hexyl)piperidin-3-yl)amino)hexyl)piperidin-4-yl)benzamide]: 12.9 nM; `COc1cc(N)c(Cl)cc1C(=O)N[C@@H]1CCN(CCCCCC(=O)NCCCCCCCC(=O)N[C@H]2C[C@](O)(CO)[C@@H](O)[C@H](O)[C@H]2O)C[C@@H]1OC` [Example 24, 4-amino-5-chloro-2-methoxy-N-((3S,4R)-3-methoxy-1-(6-oxo ((8-oxo-8-(((1S,2S,3R,4S,5S)-2,3,4,5-tetrahydroxy (hydroxymethyl)cyclohexyl)amino)octyl)amino)hexyl)piperidin-4-yl)benzamide]: 28.7 nM. In turn, `Nc1c(Cl)cc(C(=O)NCC2CCN(CC3CCN(CCCCCCC(=O)NC[C@H](O)[C@@H](O)[C@H](O)[C@H](O)CO)CC3)CC2)c2c1CCO2` [Example 37, 4-amino-5-chloro-N-((1-((1-(7-oxo-7-(((2S,3R,4R,5R)-2,3,4,5,6-pentahydroxyhexyl)amino)heptyl)piperidin-4-yl)methyl)piperidin-4-yl)methyl)-2,3-dihydrobenzofuran-7-carboxamide] registered an EC50 of 2 nM. On to `Nc1c(Cl)cc(C(=O)NC2CCN(CCCCCC(=O)NC3CCN(CCCCCC(=O)NC[C@H](O)[C@@H](O)[C@H](O)[C@H](O)CO)CC3)CC2)c2c1CCO2` [Example 31, 4-amino-5-chloro-N-(1-(6-oxo-6-((1-(6-oxo-6-(((2S,3R,4R,5R)-2,3,4,5,6-pentahydroxyhexyl)amino)hexyl)piperidin-4-yl)amino)hexyl)piperidin-4-yl)-2,3-dihydrobenzofuran-7-carboxamide], for which the EC50 amounted to 6.1 nM. For `CO[C@H]1CN(CCCCCC(=O)NCCCC(=O)NC[C@H](O)[C@@H](O)[C@H](O)[C@H](O)CO)CC[C@H]1NC(=O)c1cc(Cl)c(N)c2c1OCC2` [Example 46], the EC50 stood at 5.9 nM.

With `COc1cc(N)c(Cl)cc1C(=O)N[C@@H]1CCN(CCCCCC(=O)N(C)C2CCN(CCCCCCCC(=O)NC[C@H](O)[C@@H](O)[C@H](O)[C@H](O)CO)CC2)C[C@@H]1OC` [Example 10, 4-amino-5-chloro-2-methoxy-N-((3S,4R)-3-methoxy-1-(6-(methyl(1-(8-oxo-8-(((2S,3R,4R,5R)-2,3,4,5,6-pentahydroxyhexyl)amino)octyl)piperidin-4-yl)amino)-6-oxohexyl)piperidin-4-yl)benzamide], it took 26.1 nM to reach a half-maximal effect (EC50). Turning to `COc1cc(N)c(Cl)cc1C(=O)N[C@@H]1CCN(CCCCCC(=O)N(C)C2CCN(CCCCCC(=O)NC[C@H](O)[C@@H](O)[C@H](O)[C@H](O)CO)CC2)C[C@@H]1OC` [Example 11, 4-amino-5-chloro-2-methoxy-N-((3S,4R)-3-methoxy-1-(6-(methyl(1-(6-oxo-6-(((2S,3R,4R,5R)-2,3,4,5,6-pentahydroxyhexyl)amino)hexyl)piperidinyl)amino)-6-oxohexyl)piperidin-4-yl)benzamide], the EC50 was found to be 14.2 nM. The result for `COc1cc(N)c(Cl)cc1C(=O)N[C@@H]1CCN(CCCCCC(=O)NCCCCCCCC(=O)N(CCP(=O)(O)O)C[C@H](O)[C@@H](O)[C@H](O)[C@H](O)CO)C[C@@H]1OC` [Example 26, (2-(8-(6-((3S,4R)-4-(4-amino-5-chloro-2-methoxybenzamido)-3-methoxypiperidin-1-yl)hexanamido)-N-((2S,3R,4R,5R)-2,3,4,5,6-pentahydroxyhexyl)octanamido)ethyl)phosphonic acid] reads 131 nM. Next, `COc1cc(N)c(Cl)cc1C(=O)N[C@@H]1CCN(CCCCCC(=O)N(C)CCCCCCCC(=O)NC[C@H](O)[C@@H](O)[C@H](O)[C@H](O)CO)C[C@@H]1OC` [Example 16, 4-amino-5-chloro-2-methoxy-N-((3S,4R)-3-methoxy-1-(6-(methyl(8-oxo-8-(((2S,3R,4R,5R)-2,3,4,5,6-pentahydroxyhexyl)amino)octyl)amino)-6-oxohexyl)piperidin-4-yl)benzamide]: 43.3 nM; `COc1cc(N)c(Cl)cc1C(=O)N[C@@H]1CCN(CCCCCC(=O)NCCCCCCCC(=O)NCCS(=O)(=O)O)C[C@@H]1OC` [Example 23, 2-(8-(6-((3S,4R)-4-(4-amino-5-chloro-2-methoxybenzamido)-3-methoxypiperidin-1-yl)hexanamido)octanamido)ethane-1-sulfonic acid]: 56.5 nM. As for `Nc1c(Cl)cc(C(=O)NCC2CCN(CC3CCN(CCCCCCCCC(=O)NC[C@H](O)[C@@H](O)[C@H](O)[C@H](O)CO)CC3)CC2)c2c1CCO2` [Example 35, 4-amino-5-chloro-N-((1-((1-(9-oxo-9-(((2S,3R,4R,5R)-2,3,4,5,6-pentahydroxyhexyl)amino)nonyl)piperidin-4-yl)methyl)piperidin-4-yl)methyl)-2,3-dihydrobenzofuran-7-carboxamide], the concentration for a half-maximal effect (EC50) is 2.6 nM.
